Results from PubChem BioAssay AID256 (DTP/NCI, 2004).
Inconclusive results and toxic doses are left out. How the source made its calls: active means survival T/C of 150% or more; inactive means T/C below 125% in these data.

Tested on: CD2F1 mice, L1210 leukemia ip, survival T/C
Assay: NCI In Vivo Anticancer Drug Screen. Data for tumor model L1210 Leukemia (intraperitoneal) in CD2F1 (CDF1) mice
Conditions: endpoint: mean survival time, higher = longer survival
Procedure, shortened: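 Implant tumor; dose compound or vehicle; measure endpoint in both groups; report treated divided by control.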

[1] = dose: 100.0 mg/kg/injection, schedule: Q04DX003 (ip), vehicle: saline with Tween-80
[2] = dose: 200.0 mg/kg/injection, schedule: Q04DX003 (ip), vehicle: saline with Tween-80
[3] = dose: 400.0 mg/kg/injection, schedule: Q04DX003 (ip), vehicle: saline with Tween-80
[4] = dose: 100.0 mg/kg/injection, schedule: Q04DX002 (ip), vehicle: saline with Tween-80
[5] = dose: 200.0 mg/kg/injection, schedule: Q04DX002 (ip), vehicle: saline with Tween-80
[6] = dose: 400.0 mg/kg/injection, schedule: Q04DX002 (ip), vehicle: saline with Tween-80
[7] = dose: 100.0 mg/kg/injection, schedule: Q01DX001 (ip), vehicle: saline
[8] = dose: 200.0 mg/kg/injection, schedule: Q01DX001 (ip), vehicle: saline

Measured: T/C

O=S1(=O)CC(O)C(Br)C1 (stereo unspecified)
inactive: [1] 103 % of control | [2] 101 % of control | [3] 92 % of control

O=C(COc1ccc(Cl)cc1Cl)Nc1cccc(Cl)c1
inactive: [4] 101 % of control | [5] 101 % of control | [6] 93 % of control

C=C(Br)CNC(=O)C(O)(c1ccccc1)c1ccccc1
inactive: dose: 100.0 mg/kg/injection, schedule: Q01DX001 (ip), vehicle: saline with Tween-80 103 % of control | dose: 200.0 mg/kg/injection, schedule: Q01DX001 (ip), vehicle: saline with Tween-80 87 % of control | dose: 400.0 mg/kg/injection, schedule: Q01DX001 (ip), vehicle: saline with Tween-80 89 % of control

COc1ccc(C(O)(c2ccccc2)C(C)O)cc1 (stereo unspecified)
inactive: [1] 101 % of control | [2] 98 % of control | [3] 98 % of control

CC(=O)NC(C)(C)C
inactive: [1] 98 % of control | [2] 106 % of control | [3] 104 % of control

NCC1CCCCO1 (stereo unspecified)
inactive: dose: 50.0 mg/kg/injection, schedule: Q01DX001 (ip), vehicle: saline 90 % of control | [7] 98 % of control | [8] 93 % of control

ClCCN(CCCl)c1ccc(N=Nc2ccc(Cl)cc2)cc1
inactive: dose: 100.0 mg/kg/injection, schedule: Q01DX001 (ip), vehicle: Klucel (hydroxypropylcellulose) (HPC) 94 % of control | dose: 200.0 mg/kg/injection, schedule: Q01DX001 (ip), vehicle: Klucel (hydroxypropylcellulose) (HPC) 94 % of control | dose: 400.0 mg/kg/injection, schedule: Q01DX001 (ip), vehicle: Klucel (hydroxypropylcellulose) (HPC) 97 % of control

CC(=O)NC/C(C)=N/Nc1ccc([N+](=O)[O-])cc1[N+](=O)[O-]
inactive: dose: 25.0 mg/kg/injection, schedule: Q04DX003 (ip), vehicle: saline with Tween-80 93 % of control | dose: 50.0 mg/kg/injection, schedule: Q04DX003 (ip), vehicle: saline with Tween-80 87 % of control | [1] 91 % of control

CC1NCCOC1c1ccccc1 (stereo unspecified)
inactive: dose: 100.0 mg/kg/injection, schedule: Q04DX003 (ip), vehicle: saline 100 % of control | dose: 200.0 mg/kg/injection, schedule: Q04DX003 (ip), vehicle: saline 102 % of control

CCCCCCCCCCCCCCCCCCOCCOCCOCCOCCO
inactive: dose: 25.0 mg/kg/injection, schedule: Q04DX002 (ip), vehicle: saline with Tween-80 91 % of control | dose: 50.0 mg/kg/injection, schedule: Q04DX002 (ip), vehicle: saline with Tween-80 100 % of control | [4] 94 % of control | [6] 94 % of control

O=C(O)C1Cc2c([nH]c3ccccc23)C2CC(C3CC4c5[nH]c6ccccc6c5CC(C(=O)O)N4C3=O)C(=O)N12 (stereo unspecified)
inactive: [4] 97 % of control | [5] 93 % of control | [6] 89 % of control

Nc1cn[nH]c(=O)c1
inactive: dose: 100.0 mg/kg/injection, schedule: Q01DX001 (ip), vehicle: carboxymethylcellulose (CMC) 102 % of control | dose: 200.0 mg/kg/injection, schedule: Q01DX001 (ip), vehicle: carboxymethylcellulose (CMC) 100 % of control | dose: 400.0 mg/kg/injection, schedule: Q01DX001 (ip), vehicle: carboxymethylcellulose (CMC) 92 % of control

CC(C)C(=NO)C(C)C
inactive: dose: 100.0 mg/kg/injection, schedule: Q01DX009 (ip), vehicle: saline with Tween-80 98 % of control | [1] 101 % of control | dose: 200.0 mg/kg/injection, schedule: Q01DX009 (ip), vehicle: saline with Tween-80 93 % of control | [2] 93 % of control | [3] 91 % of control

CCCCCCC(C#N)C(=O)OCC (stereo unspecified)
inactive: dose: 75.0 mg/kg/injection, schedule: Q01DX001 (ip), vehicle: saline 100 % of control | dose: 150.0 mg/kg/injection, schedule: Q01DX001 (ip), vehicle: saline 96 % of control | dose: 300.0 mg/kg/injection, schedule: Q01DX001 (ip), vehicle: saline 100 % of control

NCC1CC2C=CC1C2 (stereo unspecified)
inactive: [7] 100 % of control | [8] 93 % of control
